Measured values published in patent publication US8664206B2, “Diastereomers of 2-methylene-19-nor-22-methyl-1α,25-dihydroxyvitamin D3” (Wisconsin Alumni Research Foundation, priority 2010, dated 2014).
Entries after “also recorded” stand apart in the source; their conditions may differ.

What was measured:
Sprague-Dawley rats [1] = assay: Bone calcium mobilization (serum calcium); format: in vivo, rat; details: for bone calcium mobilization activity compared with 1,25(OH)2D3 (in words): intraperitoneal doses
Experimental: (§1) Male, weanling Sprague-Dawley rats were placed on Diet 11 (0.47% Ca) diet+AEK oil for one week followed by Diet 11 (0.02% Ca)+AEK oil for 3 weeks. The rats were then switched to a diet containing 0.47% Ca for one week followed by two weeks on a diet containing 0.02% Ca. Dose administration began during the last week on 0.02% calcium diet. Four consecutive intraperitoneal doses were given approximately 24 hours apart. Twenty-four hours after the last dose, blood was collected from the severed neck and the concentration of serum calcium determined as a measure of bone calcium mobilization. The first 10 cm of the intestine was also collected for intestinal calcium transport analysis using the everted gut sac method.

Sprague-Dawley rats [2] = assay: Intestinal calcium transport (everted gut sac method); format: in vivo, rat; details: for net intestinal calcium transport, serosal to mucosal ratio / intestinal calcium transport activity compared with 1,25(OH)2D3 (in words): rat; for net intestinal calcium transport, serosal to mucosal ratio: relative to vehicle; for intestinal calcium transport activity compared with 1,25(OH)2D3 (in words): intraperitoneal doses
Experimental: as §1

HL-60 cells = assay: HL-60 differentiation (nitro blue tetrazolium reduction); format: cell-based, human; details: for HL-60 cell differentiation, times more potent than the native hormone: fold MORE potent/active than 1,25(OH)2D3; for EC50: Homo sapiens, HL-60; for HL-60 Differentiation Relative Activity: relative to the native hormone 1,25(OH)2D3 in the same assay, (value for native hormone)/(value for working example), >1 = more active
Experimental: The study drugs were dissolved in ethanol and the concentrations determined using UV spectrophotometry. Serial dilutions were prepared so that a range of drug concentrations could be tested without changing the final concentration of ethanol (≦0.2%) present in the cell cultures.
Human promyelocytic leukemia (HL60) cells were grown in RPMI-1640 medium containing 10% fetal bovine serum. The cells were incubated at 37° C. in the presence of 5% CO2.
HL60 cells were plated at 1.2×10^5 cells/ml. Eighteen hours after plating, cells in duplicate were treated with drug. Four days later, the cells were harvested and a nitro blue tetrazolium reduction assay was performed (Collins et al., 1979; J. Exp. Med. 149:969-974). The percentage of differentiated cells was determined by counting a total of 200 cells and recording the number that contained intracellular black-blue formazan deposits. Verification of differentiation to monocytic cells was determined by measuring phagocytic activity (data not shown).

[3] = target: T1, vitamin D receptor (full-length recombinant rat receptor) (Rattus norvegicus, UniProt P13053); assay: Vitamin D receptor competitive binding; details: for binding to the nuclear vitamin D receptor compared with 1,25(OH)2D3 (in words): competitive binding against 3H-1,25(OH)2D3, recombinant rat receptor; for Ki: read-out: Competitive VDR Binding (Ki)
T1 construct: Full-length recombinant rat receptor was expressed in E. coli; His tag (C); made in house; host or cells: E. coli BL21(DE3) Codon Plus RIL
T1 sequence (P13053 1-423): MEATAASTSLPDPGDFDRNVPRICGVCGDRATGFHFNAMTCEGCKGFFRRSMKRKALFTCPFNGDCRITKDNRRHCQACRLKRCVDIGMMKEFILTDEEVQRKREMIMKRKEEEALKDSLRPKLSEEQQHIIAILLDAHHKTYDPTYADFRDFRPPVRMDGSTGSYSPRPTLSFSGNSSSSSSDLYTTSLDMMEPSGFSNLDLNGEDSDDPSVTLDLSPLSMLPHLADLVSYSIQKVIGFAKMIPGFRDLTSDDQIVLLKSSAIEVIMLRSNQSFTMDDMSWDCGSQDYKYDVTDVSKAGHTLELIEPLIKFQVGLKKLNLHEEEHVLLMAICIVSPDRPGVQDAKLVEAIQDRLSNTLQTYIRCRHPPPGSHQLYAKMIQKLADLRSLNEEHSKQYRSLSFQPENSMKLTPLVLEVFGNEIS
Experimental: Full-length recombinant rat receptor was expressed in E. coli BL21(DE3) Codon Plus RIL cells and purified to homogeneity using two different column chromatography systems. The first system was a nickel affinity resin that utilizes the C-terminal histidine tag on this protein. The protein that was eluted from this resin was further purified using ion exchange chromatography (S-Sepharose Fast Flow). Aliquots of the purified protein were quick frozen in liquid nitrogen and stored at −80° C. until use. For use in binding assays, the protein was diluted in TEDK50 (50 mM Tris, 1.5 mM EDTA, pH 7.4, 5 mM DTT, 150 mM KCl) with 0.1% Chaps detergent. The receptor protein and ligand concentration was optimized such that no more than 20% of the added radiolabeled ligand was bound to the receptor.
Unlabeled ligands were dissolved in ethanol and the concentrations determined using UV spectrophotometry (1,25(OH)2D3: molar extinction coefficient=18,200 and λmax=265 nm; Analogs: molar extinction coefficient=42,000 and λmax=252 nm). Radiolabeled ligand (^3H-1,25(OH)2D3, ˜159 Ci/mmole) was added in ethanol at a final concentration of 1 nM.
Radiolabeled and unlabeled ligands were added to 100 mcl of the diluted protein at a final ethanol concentration of ≦10%, mixed and incubated overnight on ice to reach binding equilibrium. The following day, 100 mcl of hydroxylapatite slurry (50%) was added to each tube and mixed at 10-minute intervals for 30 minutes. The hydroxylapatite was collected by centrifugation and then washed three times with Tris-EDTA buffer (50 mM Tris, 1.5 mM EDTA, pH 7.4) containing 0.5% Titron X-100. After the final wash, the pellets were transferred to scintillation vials containing 4 ml of Biosafe II scintillation cocktail, mixed and placed in a scintillation counter. Total binding was determined from the tubes containing only radiolabeled ligand.

[4] = test system: 24-hydroxylase (24OHase) gene promoter; assay: In vitro transcription assay (24-hydroxylase promoter-luciferase in ROS 17/2.8 bone cells); format: cell-based, rat; details: for EC50: Rattus norvegicus; for 24OHase Transcription Relative Activity: relative to the native hormone 1,25(OH)2D3 in the same assay, (value for native hormone)/(value for working example), >1 = more active
Experimental: Transcription activity was measured in ROS 17/2.8 (bone) cells that were stably transfected with a 24-hydroxylase (24OHase) gene promoter upstream of a luciferase reporter gene (Arbour et al., 1998). Cells were given a range of doses. Sixteen hours after dosing the cells were harvested and luciferase activities were measured using a luminometer. RLU=relative luciferase units.

SMILES | net intestinal calcium transport, serosal to mucosal ratio (Sprague-Dawley rats [2]) | bone calcium mobilization activity compared with 1,25(OH)2D3 (in words) (Sprague-Dawley rats [1]; rat) | intestinal calcium transport activity compared with 1,25(OH)2D3 (in words) (Sprague-Dawley rats [2]) | binding to the nuclear vitamin D receptor compared with 1,25(OH)2D3 (in words) [3] | Ki [3] | cell differentiation activity (in words) (HL-60 cells) | EC50 (HL-60 cells) | HL-60 Differentiation Relative Activity (HL-60 cells) | EC50 [4] | 24-hydroxylase transcription activity compared with 1,25(OH)2D3 (in words) ([4]; bone cells) | 24OHase Transcription Relative Activity [4] | further results
C=C1C(O)CC(=CC=C2CCCC3(C)C2CCC3[C@@H](C)CCCC(C)(C)O)CC1O (single isomer, unassigned) [20R isomer of 2MD, 2-methylene-19-nor-1α,25-dihydroxyvitamin D3, reference compound] | −0.6 |  |  |  |  |  |  |  |  |  |  | net bone calcium mobilization activity (Sprague-Dawley rats [1]; rat): 4.5 mg/dL; HL-60 cell differentiation, times more potent than the native hormone (HL-60 cells): 0.95 times
C=C1C(O)CC(=CC=C2CCCC3(C)C2CCC3[C@@H](C)CCCC(C)(C)O)CC1O (single isomer, unassigned) [20S isomer of 2MD, 2-methylene-19-nor-1α,25-dihydroxyvitamin D3, reference compound] | −0.9 |  |  |  |  |  |  |  |  |  |  | net bone calcium mobilization activity (Sprague-Dawley rats [1]; rat): 9.3 mg/dL; HL-60 cell differentiation, times more potent than the native hormone (HL-60 cells): 27 times
C=C1[C@H](O)CC(=C/C=C2\CCC[C@@]3(C)C2CC[C@@H]3[C@@H](C)[C@H](C)CCC(C)(C)O)C[C@H]1O (stereo partly drawn) [AGS-1, (20S,22R)-2-methylene-19-nor-22-methyl-1α,25-dihydroxyvitamin D3] | 4.3 | more potent than 1,25-(OH)2D3; also recorded: does show activity with regard to net bone calcium mobilization; also recorded: more efficacious; also recorded: significantly higher bone calcium mobilization activity | more potent than 1,25-(OH)2D3; also recorded: higher potency in promoting intestinal calcium transport than the native hormone; also recorded: significantly higher | approximately equally effective as 1,25-(OH)2D3; also recorded: same affinity as 1,25(OH)2D3; also recorded: bind the vitamin D receptor | 0.07 nM | relatively high cell differentiation activity | 0.01 nM | 300 | 0.008 nM | relatively high 24-hydroxylase transcription activity | 38 | Net Bone Ca2+ Mobilization (Sprague-Dawley rats [1]; at 780 pM dosage): 5.3 mg/dL; Net Intestinal Ca2+ Transport (serosal Ca2+ to mucosal Ca2+ ratio, S/M) (Sprague-Dawley rats [2]; at 780 pM dosage): 9.9; transcription of the 24-hydroxylase gene, times more potent than 1,25(OH)2D3 ([4]; bone cells, fold MORE potent): ~40 times
C=C1[C@H](O)CC(=C/C=C2\CCC[C@@]3(C)C2CC[C@@H]3[C@@H](C)[C@@H](C)CCC(C)(C)O)C[C@H]1O (stereo partly drawn) [AGS-2, (20S,22S)-2-methylene-19-nor-22-methyl-1α,25-dihydroxyvitamin D3] |  | much reduced ability to mobilize calcium from bone compared to 1,25-(OH)2D3; also recorded: no net calcemic activity on bone; also recorded: essentially no ability to mobilize bone calcium except at extremely high concentrations | significant net intestinal calcium transport; also recorded: comparable or slightly higher intestinal calcium transport compared to 1,25(OH)2D3 | lower affinity relative to 1,25-(OH)2D3; also recorded: lower affinity than 1,25(OH)2D3; also recorded: bind the vitamin D receptor | 8 nM | relatively high cell differentiation activity | 20 nM | 0.15 | 3 nM | relatively high 24-hydroxylase transcription activity | 0.1 | Net Bone Ca2+ Mobilization (Sprague-Dawley rats [1]; at 780 pM dosage): 0 mg/dL; bone calcium mobilization, times less potent than the native hormone (Sprague-Dawley rats [1]; rat, fold LESS potent in releasing bone calcium stores): approximately 50 times; Net Intestinal Ca2+ Transport (serosal Ca2+ to mucosal Ca2+ ratio, S/M) (Sprague-Dawley rats [2]; at 780 pM dosage): 4.3; transcription of the 24-hydroxylase gene, times less potent than 1,25(OH)2D3 ([4]; rat osteosarcoma cells, fold LESS potent): about 10 times
C=C1[C@H](O)CC(=C/C=C2\CCC[C@@]3(C)C2CC[C@@H]3[C@H](C)[C@@H](C)CCC(C)(C)O)C[C@H]1O (stereo partly drawn) [SAG-1, (20R,22S)-2-methylene-19-nor-22-methyl-1α,25-dihydroxyvitamin D3] |  | less potent than 1,25-(OH)2D3; also recorded: no net calcemic activity on bone; also recorded: less potent than the native hormone; also recorded: little or no ability to mobilize bone calcium except at extremely high doses | comparable or reduced potency in comparison to 1,25(OH)2D3 at lower concentrations but increased potency in comparison to 1,25(OH)2D3 at high concentrations | bind the vitamin D receptor | 0.09 nM | relatively high cell differentiation activity | 0.6 nM | 3.3 | 0.3 nM | approximately equal in potency to 1,25(OH)2D3 | 10 | Net Bone Ca2+ Mobilization (Sprague-Dawley rats [1]; at 260 pM dosage): 0.3^7 mg/dL; Net Intestinal Ca2+ Transport (serosal Ca2+ to mucosal Ca2+ ratio, S/M) (Sprague-Dawley rats [2]; at 260 pM dosage): 1.3^7
C=C1C(O)CC(=CC=C2CCCC3(C)C2CCC3[C@H](C)[C@H](C)CCC(C)(C)O)CC1O (stereo partly drawn) [SAG-2, (20R,22R)-2-methylene-19-nor-22-methyl-1α,25-dihydroxyvitamin D3] |  |  |  |  |  |  |  |  |  | unexpectedly low in comparison to the native hormone |  | 
C=C1[C@H](O)CC(=C/C=C2\CCC[C@@]3(C)C2CC[C@@H]3[C@H](C)[C@H](C)CCC(C)(C)O)C[C@H]1O (stereo partly drawn) [SAG-2, (20R,22R)-2-methylene-19-nor-22-methyl-1α,25-dihydroxyvitamin D3] |  | markedly lower than 1,25-(OH)2D3; also recorded: no net calcemic activity on bone; also recorded: very little to no activity in mobilizing calcium from bone stores; also recorded: little or no ability to mobilize bone calcium, even at extremely high concentrations | markedly lower than 1,25-(OH)2D3; also recorded: less potency compared to the native hormone; also recorded: little ability to increase transport, except at extremely high concentrations | less effective than 1,25-(OH)2D3; also recorded: bind the vitamin D receptor | 0.2 nM |  | 9 nM | 0.3 | 6 nM |  | 0.05 | Net Bone Ca2+ Mobilization (Sprague-Dawley rats [1]; at 260 pM dosage): −0.1^7 mg/dL; Net Intestinal Ca2+ Transport (serosal Ca2+ to mucosal Ca2+ ratio, S/M) (Sprague-Dawley rats [2]; at 260 pM dosage): 0.4^7; affinity for the nuclear vitamin D receptor, times less than 1,25(OH)2D3 ([3]; competitive binding, fold LESS affinity than native hormone): approximately 4 times
